From patent publication US5795899A, “Soluble salts of 4-amino-2-(4,4-dimethylimidazolidin-2-on-1-yl) pyrimidine-5-carboxylic acid N-methyl-N-(3-trifluoromethylphenyl)-amide, a process for the preparation thereof, the use thereof as pharmaceuticals and starting materials” (Hoechst Aktiengesellschaft, priority 1992, dated 1998)
Converted amounts (≈) assume the structure as drawn. Like-named read-outs stand apart in the source and are kept apart here. One block for each compound: values may come before it.

Key:
physchem = details: water
[1] = tested on: mouse leukemia cells, L 1210; test: MTT assay, inhibition of cell proliferation, L1210; format: cell-based; details: 72 hours incubation
Method: (§1) The reduced inhibitory effect on cell proliferation was tested on exponentially growing animal (mouse leukemia cells, L 1210) and human (bronchial carcinoma cells, A 549; colon carcinoma cells, HT 29) tumor cells. This entailed the tumor cells being incubated in RPMI standard medium with various concentrations of the test substances for 72 hours. Cell incubations only in fresh medium served as control. Incubations were set up in quadruplet. […] After incubation for a further 7 to 24 hours, the cell supernatant was carefully removed and the formazan dye in the cells was solubilized by adding DMSO and measured quantitatively by photometry at 492 nm. The ratio of the extinction of the substance incubations to the control incubation was quantified. The coefficient of variation in each incubation series was less than 15%. The following Table 6 indicates the IC50 values (IC50 [μg/ml] is the concentration of the test substance per ml which is necessary for 50% inhibition) from these investigations.

[2] = tested on: colon carcinoma cells, HT 29; test: MTT assay, inhibition of cell proliferation, HT 29; format: cell-based; details: Homo sapiens, 72 hours incubation
Method: as §1

[3] = tested on: bronchial carcinoma cells, A 549; test: MTT assay, inhibition of cell proliferation, A 549; format: cell-based; details: Homo sapiens, A549; 72 hours incubation
Method: as §1

serum lipoproteins = test: Effect on serum lipoproteins of normolipemic male rats in a subchronic test; format: in vivo, male Wistar rats, HOE: WISKf (SPF 71) strain; details: 100 mg/kg/day, oral, 7 days
Method: 4.1 Effect on serum lipoproteins of normolipemic male rats in a subchronic test
Groups of in each case 10 male rats of the HOE: WISKf (SPF 71) strain with an initial weight above 180 g received once a day (in the morning) the test product or the comparison product in 1% aqueous ®Tylose MH 300 solution by stomach tube (0.5 ml/100 g of body weight); the control group in each case received only the vehicle. The last (7th) administration took place 24 hours before removal of blood and sacrifice. There was free access to food and water during the test. The food was withdrawn 24 hours before the removal of blood.
The serum from all 10 rats in a group was pooled for the analysis of the serum lipoproteins. The serum lipoproteins were separated with a preparative ultracentrifuge (KONTRON TGA 65, Rotor BECKMAN 50.4 Ti).
The following conditions specified by Koga, S., Horwitz, D. L., and Scanu, A. M., Journal of Lipid Research 10, 577 (1969) and Havel, R. J., Eder, H. A., and Bragdon, H. H., J. Clin. Invest. 34, 1345 (1955) were used to separate VLDL, LDL and HDL:
Test kits from BOEHRINGER/Mannheim were used for the enzymatic determination of cholesterol and triglycerides in the separated lipoprotein fractions (compare Siedel, J., Schlumberger, H., Klose, S., Ziegenhorn, J. and Wahlefeld, A. W., J. Clin. Chem. Clin. Biochem. 19, 838 (1981) and Wahlefeld, A. W., in: H. O. Bergmeier: Methoden der enzymatischen Analyse (Methods of Enzymatic Analysis), 2nd edition, Volume II, Verlag Chemie 1974, page 1878). The proteins were determined by the method of Lowry (Lowry, O. H., Roseborough, N. J., Farr, A. L. and R. J. Randell, J. Biol. Chem. 193, 265 (1951)).
Clofibrate was used as comparison product.

hypercholesterolemia = test: Effect on experimental hypercholesterolemia in male rats; format: in vivo, male Wistar rats, HOE: WISKf (SPF 71) strain; details: 100 mg/kg/day, oral, 7 days
Method: Groups of in each case 10 male rats of the HOE: WISKf (SPF 71) strain with a weight of about 200 g received each day in the morning a cocktail which contained the substances required to generate a combined dietetic/hormonal hypercholesterolemia, and in each case the product to be tested for the inhibition of hypercholesterolemia, in appropriate dosage. The cocktail was composed of a mixture of 100 g of cholesterol, 30 g of propylthiouracil and 100 g of cholic acid in 1 l of peanut oil. 1 ml of this/100 g of body weight was administered by gavage. The products to be tested were suspended in this cocktail in a concentration such that it contained the daily dose indicated in Table 4 on administration of the amount mentioned above. The other procedure for the treatment and the analysis of the individual parameters were carried out as indicated under 4.1.
Clofibrate was used as comparison product. The results are compiled in Table 4, wherein a) indicates the absolute values and b) indicates the percentage changes.

[4] = tested on: carbohydrate-induced hypertriglyceridemia; test: Inhibition of carbohydrate-induced hypertriglyceridemia; format: in vivo, male Sprague-Dawley rats
Method: Groups of in each case 10 male Sprague-Dawley rats (supplied by the breeder Mollegard with a weight of 250-280 g) received on each of 4 consecutive days one administration of the compound dissolved in PEG 400 by gavage. In addition, after the 3rd administration and 8 and 24 hours later they received 2.5 g of fructose/kg, likewise by gavage. Moreover, after the 3rd administration of product, 50% strength fructose solution was offered to them as drinking water ad libitum, and the food was withdrawn. Retroorbital removal of blood, from which the serum was obtained for the triglyceride determination and VLDL preparation in the ultracentrifuge (flotation at d=1.006), took place 3 hours after the last product/fructose administration. The food received by the animals from 1 week before the 1st administration and up to the 3rd administration was a diet with 40% casein in the feed meal.
The animals develop, as a result of this treatment, a hypertriglyceridemia which approximately corresponds to Fredrickson phenotype IV in humans. The serum triglycerides of the normal animals increased from 0.54 to 1.1 mmol/l, and the VLDL triglycerides from 0.67 to 1.81.

[5] = Table 1, Temp. [°C]: No. 1 25.0, 2 23.0, 3 26.2, 4 25.1, 5 25.2, 6 24.1, 7 24.5, 8 24.2, 9 24.2, 10 25.7, 11 25.8
[6] = Table 2, Temp. [°C]: hydrochloride 25.0, nitrate 23.5, p-toluenesulfonate 23.2, hydrogen (R,R)-tartrate 24.6, free base 24.8

1 part by mass dissolves in . . . parts of H2 O [5]: 703 parts of H2 O
Structure (SMILES): CC1(C)CN(c2ncc(C(=O)Nc3ccc(F)c(C(F)(F)F)c3)c(N)n2)C(=O)N1 [Compound 3]

Solubility in water (in words): exceptionally slightly soluble in water
Structure (SMILES): CC1(C)CN(c2ncc(C(=O)Nc3cccc(C(F)(F)F)c3)c(N)n2)C(=O)N1 [imanixil, 4-amino-2-(4,4-dimethylimidazolidin-2-on-1-yl)pyrimidine-5-carboxylic acid N-(3-trifluoromethylphenyl)amide, reference compound]

1 part by mass dissolves in . . . parts of H2 O [5]: 217 parts of H2 O
Structure (SMILES): CC1(C)CN(c2ncc(C(=O)Nc3cc(C(F)(F)F)ccc3Cl)c(N)n2)C(=O)N1 [Compound 4]

Structure (SMILES): CN(C(=O)c1cnc(N2CC(C)(C)NC2=O)nc1N)c1cccc(C(F)(F)F)c1.O=[N+]([O-])O [Nitrate, 4-amino-2-(4,4-dimethyl-2-oxo-1-imidazolidinyl)pyrimidine-5-carboxylic acid N-methyl-N-(3-trifluoromethylphenyl)amide nitrate]
1 part by mass dissolves in . . . parts of H2 O [6]: 8.13 parts of H2 O | solubility (physchem): 110 mg/mL

IC50 [1]: 0.7 mg/L (≈ 1.78 µM) | IC50 [2]: 4.3 mg/L (≈ 10.9 µM) | IC50 [3]: 3.4 mg/L (≈ 8.62 µM)
Structure (SMILES): CC1(C)CN(c2ncc(C(=O)Nc3cccc(C(F)(F)F)c3)c(N)n2)C(=O)N1 [No. 1, 4-amino-2-(4,4-dimethylimidazolidin-2-on-1-yl)pyrimidine-5-carboxylic acid N-(3-trifluoromethylphenyl)amide, reference compound]

1 part by mass dissolves in . . . parts of H2 O [5]: 781 parts of H2 O
Structure (SMILES): CCCC1(C)CN(c2ncc(C(=O)Nc3cc(C(F)(F)F)ccc3Cl)c(N)n2)C(=O)N1 (stereo not drawn) [Compound 8]

Solubility in water (in words): sparingly soluble in water | 1 part by mass dissolves in . . . parts of H2 O [5]: 75 parts of H2 O
Structure (SMILES): COc1ccc(C(F)(F)F)cc1NC(=O)c1cnc(N2CC(C)(C)NC2=O)nc1N [Compound 6]

Structure (SMILES): CN(C(=O)c1cnc(N2CC(C)(C)NC2=O)nc1N)c1cccc(C(F)(F)F)c1.O=C(O)C(O)C(O)C(=O)O [Hydrogen (R,R)-tartrate, 4-amino-2-(4,4-dimethyl-2-oxo-1-imidazolidinyl)pyrimidine-5-carboxylic acid N-methyl-N-(3-trifluoromethylphenyl)amide hydrogen (R,R)-tartrate]
1 part by mass dissolves in . . . parts of H2 O [6]: < 9.90 parts of H2 O | solubility (physchem): > 91 mg/mL

1 part by mass dissolves in . . . parts of H2 O [5]: 554 parts of H2 O
Structure (SMILES): COc1ccc(NC(=O)c2cnc(N3CC(C)(C)NC3=O)nc2N)cc1C(F)(F)F [Compound 7]

1 part by mass dissolves in . . . parts of H2 O [5]: 725 parts of H2 O | Solubility in water: Concentration in % by weight [5]: 0.13 % by weight
Structure (SMILES): CCCC1(C)CN(c2ncc(C(=O)Nc3ccc(Cl)c(C(F)(F)F)c3)c(N)n2)C(=O)N1 (stereo not drawn) [No. 9, reference compound]

1 part by mass dissolves in . . . parts of H2 O [5]: 1055 parts of H2 O
Structure (SMILES): CC1(C)CN(c2ncc(C(=O)Nc3ccc(Cl)c(C(F)(F)F)c3)c(N)n2)C(=O)N1 [Compound 5]

Solubility in water: Concentration in % by weight [5]: 0.08 % by weight | Solubility in water: Molarity [5]: 0.90 × 10^-3
Structure (SMILES): CC1(C)CN(c2ncc(C(=O)Nc3cccc(C(F)(F)F)c3)c(N)n2)C(=O)N1 [Compound 2]

Structure (SMILES): CN(C(=O)c1cnc(N2CC(C)(C)NC2=O)nc1N)c1cccc(C(F)(F)F)c1.Cc1ccc(S(=O)(=O)O)cc1 [p-Toluenesulfonate, 4-amino-2-(4,4-dimethyl-2-oxo-1-imidazolidinyl)pyrimidine-5-carboxylic aci d N-methyl-N-(3-trifluoromethylphenyl)amide p-toluenesulfonate]
1 part by mass dissolves in . . . parts of H2 O [6]: 14.44 parts of H2 O | solubility (physchem): 65 mg/mL

1 part by mass dissolves in . . . parts of H2 O [5]: 255 parts of H2 O | Solubility in water: Molarity [5]: 8.54 × 10^-3
Structure (SMILES): CCCC1(C)CN(c2ncc(C(=O)Nc3cccc(C(F)(F)F)c3)c(N)n2)C(=O)N1 (stereo not drawn) [No. 10, reference compound]

Structure (SMILES): CCOC(=O)C(C)(C)Oc1ccc(Cl)cc1 [Clofibrate, reference compound]
% change compared with control, protein LDL (serum lipoproteins): -32% | % change compared with control, total cholesterol LDL (serum lipoproteins): -31% | % change compared with control, total cholesterol VLDL (serum lipoproteins): -30% | % change compared with control, triglycerides VLDL (serum lipoproteins): -34% | % change compared with control, protein "HDL" d > 1.04 (hypercholesterolemia): -27% | % change compared with control, protein LDL (hypercholesterolemia): +16% | % change compared with control, protein VLDL (hypercholesterolemia): -63% | % change compared with control, total cholesterol "HDL" d > 1.04 (hypercholesterolemia): +10% | % change compared with control, total cholesterol LDL (hypercholesterolemia): +16% | % change compared with control, total cholesterol VLDL (hypercholesterolemia): +27% | % change compared with control, triglycerides VLDL (hypercholesterolemia): +21% | Lipoprotein fraction protein "HDL" (hypercholesterolemia): 3920 | Lipoprotein fraction protein LDL (hypercholesterolemia): 1435 | Lipoprotein fraction protein VLDL (hypercholesterolemia): 809 | Lipoprotein fraction total cholesterol "HDL" (hypercholesterolemia): 648 | Lipoprotein fraction total cholesterol LDL (hypercholesterolemia): 5434 | Lipoprotein fraction total cholesterol VLDL (hypercholesterolemia): 5924 | Lipoprotein fraction triglycerides VLDL (hypercholesterolemia): 1770 | Serum % change compared with control at the end of treatment, total cholesterol (hypercholesterolemia): +20% | Serum % change compared with control at the end of treatment, triglycerides (hypercholesterolemia): +26% | Triglycerides, pool (hypercholesterolemia): 3.68 mmol/L | Total cholesterol (x) (hypercholesterolemia; mean x): 880 mg/dL | Triglycerides in serum, % change from fructose control ([4]; 100 mg/kg/day, oral, 4 days): -25% | Triglycerides in the VDVL fraction, % change from fructose control ([4]; 100 mg/kg/day, oral, 4 days): -37% | Triglycerides in the VDVL fraction, pool n = 10 ([4]; 100 mg/kg/day, oral, 4 days): 1.15 mmol/L | Triglycerides in serum (x) ([4]; 100 mg/kg/day, oral, 4 days, mean x): 0.83 mmol/L | Inhibitory effect on increase in VLDL triglycerides (in words) ([4]; dose 100 times higher than 1 mg/kg/day): only a slight inhibitory effect

1 part by mass dissolves in . . . parts of H2 O [5]: 277 parts of H2 O
Structure (SMILES): CC1NC(=O)N(c2ncc(C(=O)Nc3cccc(C(F)(F)F)c3)c(N)n2)C1C (stereo not drawn) [No. 11, reference compound]
